Where “and” joins values, the source holds several entries; their conditions need not be identical. Identical values can stand only once.
Columns and labels:
Type in all cases: cell-based, human
DF19-9-11T-derived BMECs [1] = assay: Efflux transporter substrate accumulation; settings: due to RA treatment
Method: (§1) hiPSC-derived BMECs differentiated in the presence or absence of RA were subcultured onto 12-well plates in EC medium with 10 μM RA or equivalent DMSO depending on the differentiation condition. […] Cells were washed three times with phosphate-buffered saline (PBS) and then lysed with PBS containing 5% Triton X-100 (TX-100; Fisher). Fluorescence (485 nm excitation and 530 nm emission) was measured using a plate reader and radioactivity was measured on a scintillation counter. Fluorescence/radioactivity was normalized on a per cell basis by counting trypsin-dissociated cells on a hemacytometer. Duplicate or triplicate wells were used for each condition to calculate mean and standard deviation. Each experiment was conducted twice to ensure biological reproducibility.

IMR90-4-derived BMECs [2] = assay: Efflux transporter substrate accumulation; settings: 10 μM RA vs. DMSO-treated controls; 1 h at 37° C.
Method: as §1

DF19-9-11T-derived BMECs [3] = assay: TEER of RA-treated DF19-9-11T-derived BMECs
Method: (§2) IMR90-4 and DF19-9-11T hiPSCs and H9 hESCs were maintained between passages 26-42 on […] (BD Biosciences) in mTeSR1™ medium ([…] Technologies) or on irradiated mouse embryonic fibroblasts (MEFs) in standard unconditioned medium (Dulbecco's Modified Eagle's Medium [DMEM]/Ham's F12 containing 20% Knockout Serum Replacer (Invitrogen), 1×MEM nonessential amino acids (Invitrogen), 1 mM L-glutamine (Sigma), 0.1 mM β-mercaptoethanol (Sigma), and human basic fibroblast growth factor (bFGF; 100 ng/mL for hiPSCs and 4 ng/mL for hESCs; Waisman Clinical Biomanufacturing Facility, University of Wisconsin-Madison)). Prior to differentiation, cells were passaged onto Matrigel (BD Biosciences) in mTeSR1 medium ([…] Technologies). After 2-3 days in mTeSR1, medium was switched to unconditioned medium (UM) lacking bFGF for 6 days. Human endothelial serum-free medium (hESFM; Invitrogen) supplemented with 20 ng/mL bFGF (R&D Systems) and 1% platelet-poor plasma derived bovine serum (Biomedical Technologies, Inc.) was then added for an additional 2-4 days.
(§3) All-trans RA (Sigma) was included at concentrations of 1-10 μM depending on the experiment. Equivalent DMSO was used as a vehicle control in some experiments. Cells were then dissociated with Versene (Invitrogen) and plated onto 12-well tissue culture polystyrene plates or 1.12 cm^2 Transwell-Clear® permeable inserts (0.4 μm pore size) coated with a mixture of collagen IV (400 μg/mL; Sigma) and fibronectin (100 μg/mL; Sigma). Culture plates were incubated with the coating for at least 30 min at 37° C., while the inserts were incubated for a minimum of 4 h at 37° C. hPSC-derived BMECs were then cultured in EC medium overnight (with or without RA). […] Also, our previous study used hPSCs exclusively maintained on MEFs.
FIG. 5 dictates the timing of co-culture experiments. […] Trans-endothelial electrical resistance (TEER) was measured immediately prior to co-culture using an EVOM voltohmmeter (World Precision Instruments, Sarasota, Fla., USA) and approximately every 24 h thereafter as necessary.

IMR90-4-derived BMECs [4] = assay: TEER of RA-treated IMR90-4-derived BMECs (monoculture and neural cell co-culture)
Method: as §2, §3
FIG. 5 dictates the timing of co-culture experiments. During the subculture phase, hPSC-derived BMECs were monocultured or co-cultured with pericytes or fibroblasts in EC medium (with or without RA). After the 24 h subculture phase, hPSC-derived BMECs were maintained as a monoculture or co-cultured with differentiated hNPCs, pericytes, or fibroblasts. Depending on the experiment, co-culture was conducted in NPC differentiation medium containing 10% FBS (as opposed to the 1% FBS used during NPC differentiation) or hESFM containing 1% PDS but not bFGF (modified EC medium). Trans-endothelial electrical resistance (TEER) was measured immediately prior to co-culture using an EVOM voltohmmeter (World Precision Instruments, Sarasota, Fla., USA) and approximately every 24 h thereafter as necessary.

[5] = system: efflux transporter genes in IMR90-4-derived BMECs; assay: qPCR of efflux transporter gene expression; settings: compared to untreated samples
Method: Cells were washed once with PBS and dissociated with ACCUTASE (Invitrogen). Total RNA was extracted using an RNEASY Mini Kit (Qiagen) according to the manufacturer's instructions and quantified using a NanoDrop® ND-1000. cDNA was generated from 1 μg of total RNA using Omniscript reverse transcriptase (Qiagen) and an oligo-dT primer (Invitrogen). qPCR was conducted using 1 μL of cDNA and iQ SYBR Green Mastermix (Bio-Rad) on an iCycler (Bio-Rad). Relative expression was quantified between samples using the comparative cycle threshold (Ct) method with glyceraldehyde-3-phosphate dehydrogenase (GAPDH) as the housekeeping gene. […] Primer sequences were as previously reported.

CC1=C(/C=C/C(C)=C/C=C/C(C)=C/C(=O)O)C(C)(C)CCC1 [RA, retinoic acid]
reduction in rhodamine 123 accumulation (DF19-9-11T-derived BMECs [1]): 1.5 fold
decrease of DCFDA accumulation (IMR90-4-derived BMECs [2]): 2.9 fold
decrease of colchicine accumulation (IMR90-4-derived BMECs [2]): 2.4 fold
decrease of doxorubicin accumulation (IMR90-4-derived BMECs [2]): 1.6 fold
decrease of rhodamine 123 accumulation (IMR90-4-derived BMECs [2]): 1.4 fold
Maximum TEER (DF19-9-11T-derived BMECs [3]; subculture: pericytes, co-culture phase: differentiated NPCs (11 days), 1% PDS): 4738±303 Ω × cm^2 and 4738 ± 303 (2) Ω × cm^2
Average TEER (DF19-9-11T-derived BMECs [3]; t = 24 h, between biological replicates): 1707 ± 417 Ω × cm^2
Maximum TEER (DF19-9-11T-derived BMECs [3]; t = 24 h, triplicate filters): 1968±288 Ω × cm^2
TEER (IMR90-4-derived BMECs [4]; 24 hours after transfer to EC medium without bFGF or RA, monoculture): above 2000 Ω×cm^2
TEER (IMR90-4-derived BMECs [4]; 24 hours in modified EC medium, fibroblasts (FIG. 11a)): 2405±366 Ω×cm^2
TEER (IMR90-4-derived BMECs [4]; 24 hours in modified EC medium, monoculture control (FIG. 11a)): 2474±124 Ω×cm^2
TEER (IMR90-4-derived BMECs [4]; 24 hours, sequential pericyte/hNPC co-culture in modified EC medium (FIG. 11a)): 5160±318 Ω×cm^2
TEER (IMR90-4-derived BMECs [4]; pericyte/hNPC co-culture, each of 7 co-cultures, hNPCs differentiated 10-19 days, 10% FBS (FIG. 10c)): exceeded 2500 Ω×cm^2
TEER under optimal conditions (IMR90-4-derived BMECs [4]; pericytes/hNPCs in modified EC medium, five out of six separate co-culture experiments): > 5000 Ω×cm^2
Maximum TEER (IMR90-4-derived BMECs [4]; subculture: monoculture, co-culture phase: differentiated NPCs (10 days), 10% FBS): 2938 ± 229 (3) Ω × cm^2
Maximum TEER (IMR90-4-derived BMECs [4]; subculture: pericytes, co-culture phase: differentiated NPCs (10 days), 10% FBS): 3606 ± 366 (7) Ω × cm^2
Maximum TEER (IMR90-4-derived BMECs [4]; subculture: pericytes, co-culture phase: differentiated NPCs (17 days), 1% PDS): 5352±252 Ω × cm^2 and 5352 ± 252 (6) Ω × cm^2
Maximum TEER (IMR90-4-derived BMECs [4]; subculture: pericytes, co-culture phase: pericytes, 1% PDS (modified EC medium), 24 h): 4454±174 Ω × cm^2 and 4454 ± 175 ^ Ω × cm^2
Maximum TEER (IMR90-4-derived BMECs [4]; subculture: pericytes, co-culture phase: pericytes, 10% FBS): 2892 ± 271 ^ Ω × cm^2
Average TEER (IMR90-4-derived BMECs [4]; t = 0 h, monoculture, mean ± S.D. between biological replicates): 956 ± 345 Ω × cm^2
Maximum TEER (IMR90-4-derived BMECs [4]; t = 0 h, monoculture, mean ± S.D. between triplicate filters): 1502 ± 145 Ω × cm^2
Average TEER (IMR90-4-derived BMECs [4]; t = 24 h, monoculture, modified EC medium without bFGF or RA, between biological replicates): 2935±802 Ω × cm^2 and at least 2935±802 Ω × cm^2
Maximum TEER (IMR90-4-derived BMECs [4]; t = 24 h, monoculture, triplicate filters): 3674 ± 367 Ω × cm^2
baseline TEER (IMR90-4-derived BMECs [4]; t=0 h, 24 hours after purification at confluence, range over experiments): 300-1500 Ω×cm^2
TEER (IMR90-4-derived BMECs [4]; t=0, human foreskin fibroblasts in place of pericytes (FIG. 11a)): 2106±30 Ω×cm^2
TEER (IMR90-4-derived BMECs [4]; t=0, monoculture control of FIG. 11a): 1575±163 Ω×cm^2
TEER (IMR90-4-derived BMECs [4]; t=0, pericyte co-culture during the subculture phase, standard EC medium (FIG. 11a)): 3573±175 Ω×cm^2
ABCB1 (p-glycoprotein) upregulation, ΔΔCt [5]: 1.6±0.4
ABCC1 (MRP1) upregulation, ΔΔCt [5]: 1.97±0.71
ABCC2 (MRP2) upregulation, ΔΔCt [5]: 1.3±0.31
ABCC5 (MRP5) upregulation, ΔΔCt [5]: 0.9±0.29
ABCG2 (BCRP) upregulation, ΔΔCt [5]: 1.8±0.15
